Earlier results as cited in patent US12569183B2 (University Of Maryland, Baltimore, priority 2018, dated 2026).

What was measured:
[1] = administered twice daily, steady state on day 3
[2] = clinical trials; median baseline QTc 405 msec
[3] = rapid IV infusions; hypotension, dyspnea, QT prolongation

number of doses until steady-state exposures [1]: 4-5 doses
SMILES: CC(C)NCC(O)c1ccc(NS(C)(=O)=O)cc1 (stereo not drawn) [sotalol]
slope of the concentration QTc relationship [2]: 0.0158 ms/ng/mL | adverse events [3]: only mild to moderate adverse events
